Source: ChEMBL document CHEMBL1124119, “(+/-)-4-tert-butyl-3-cyano-1-(4-ethynylphenyl)-2,6,7-trioxabi cyclo[2.2.2]octane: synthesis of a remarkably potent GABAA receptor antagonist” (J Med Chem, 1988)
pIC50: −log10 of the molar value.

Assays:
[1] = target: Gamma-aminobutyric acid receptor subunit gamma-1 (Rattus norvegicus, UniProt P23574); experiment: Inhibition of GABA-stimulated 36Cl- uptake by membrane vesicles of rat cerebral cortex; type: functional, tissue-based
[2] = target: GABA-A receptor; anion channel; experiment: In vitro inhibition of [35S]TBPS binding to EDTA/water-dialyzed mouse brain P2 membranes; type: tissue-based
[3] = target: T1, GABA-A receptor; anion channel (Mus musculus) (UniProt Q8BHJ7+P26048+Q8QZW7+P50571+Q9R0Y8+P22723+A2AMW3+P62812+Q9JLF1+P26049+P22933+Q9D6F4+P63080+P27681+P16305); experiment: Ex vivo inhibition of [35S]TBPS binding to mouse brain membranes in the presence of Diazepam after 30 min; type: tissue-based; conditions: Membrane
[4] = target: T1, GABA-A receptor; anion channel (Mus musculus); experiment: Ex vivo inhibition of [35S]TBPS binding to mouse brain membranes in the presence of phenobarbital after 30 min; type: tissue-based; conditions: Membrane
[5] = target: T1, GABA-A receptor; anion channel (Mus musculus); experiment: Ex vivo inhibition of [35S]TBPS binding to mouse brain membranes after 30 min; type: tissue-based; conditions: Membrane
[6] = target: GABA-A receptor; anion channel; experiment: In vitro inhibition of [35S]-TBPS binding to EDTA/water-dialyzed mouse brain P2 membranes; type: tissue-based

Gamma-aminobutyric acid receptor subunit gamma-1, sequence (P23574 whole entry): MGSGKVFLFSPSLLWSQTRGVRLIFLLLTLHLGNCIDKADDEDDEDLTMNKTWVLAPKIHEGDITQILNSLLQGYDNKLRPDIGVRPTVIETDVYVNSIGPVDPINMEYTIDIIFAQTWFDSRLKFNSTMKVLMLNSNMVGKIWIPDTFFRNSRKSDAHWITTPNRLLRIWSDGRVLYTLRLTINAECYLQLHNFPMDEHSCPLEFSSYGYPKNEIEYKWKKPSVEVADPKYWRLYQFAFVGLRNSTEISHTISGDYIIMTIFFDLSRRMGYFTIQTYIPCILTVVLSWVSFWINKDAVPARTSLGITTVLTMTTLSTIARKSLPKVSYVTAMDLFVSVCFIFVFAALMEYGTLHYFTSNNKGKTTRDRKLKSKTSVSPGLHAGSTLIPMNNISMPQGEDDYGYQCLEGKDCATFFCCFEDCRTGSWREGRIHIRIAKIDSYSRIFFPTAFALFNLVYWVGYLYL

Structure (SMILES)	pIC50 [1]	pIC50 [2]	inhibition [3]	inhibition [4]	inhibition [5]	pIC50 [6]
C#Cc1ccc(C23OCC(C(C)(C)C)(CO2)C(C#N)O3)cc1 (configuration not stated)	7.60	9.60	59%	61%	68%	–
CC(C)(C)C12COC(c3ccc(C#N)cc3)(OC1)OC2	7.40	–	–	–	–	8.60
